Laboratory results: the NIST ThermoML archive (doi:10.1016/j.fluid.2011.09.011)
Numbers after ± are expanded uncertainties.

Settings: 298.15 K; 101.33 kPa; Liquid; Vibrating tube method

mass density	Structure (SMILES)
1203.76 ± 7.9 kg/m3	CCCCn1cc[n+](C)c1.F[B-](F)(F)F [1-butyl-3-methylimidazolium tetrafluoroborate]
1236.55 ± 8.3 kg/m3	CCOS(=O)(=O)[O-].CCn1cc[n+](C)c1 [1-ethyl-3-methylimidazolium ethyl sulfate]
